Tests used:
[1] = tested on: giant foxtail; experiment: Test B pre/postemergence giant foxtail; assay type: in vivo, Setaria faberii
How it was run: (§1)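 Response is a visual 0-to-10 score relative to untreated plants, where 0 means no effect and 10 means complete control, taken twelve to sixteen days after application. Treatments went onto soil at planting and onto foliage of 1- to 4-leaf plants, using a surfactant-containing non-phytotoxic solvent.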

[2] = tested on: crabgrass; experiment: Test B pre/postemergence crabgrass; assay type: in vivo, Digitaria sanguinalis
How it was run: as §1

[3] = tested on: blackgrass; experiment: Test B pre/postemergence blackgrass; assay type: in vivo, Alopecurus myosuroides
How it was run: as §1

[4] = tested on: soybean; experiment: Test B pre/postemergence soybean; assay type: in vivo, Glycine max
How it was run: as §1

[5] = tested on: velvetleaf; experiment: Test B pre/postemergence velvetleaf; assay type: in vivo, Abutilon theophrasti
How it was run: as §1

[6] = tested on: bedstraw; experiment: Test B pre/postemergence bedstraw; assay type: in vivo, Galium aparine
How it was run: as §1

[7] = tested on: wild oat; experiment: Test B pre/postemergence wild oat; assay type: in vivo, Avena fatua
How it was run: as §1

[8] = tested on: morningglory; experiment: Test B pre/postemergence morningglory; assay type: in vivo, Ipomoea hederacea
How it was run: as §1

[9] = tested on: pigweed; experiment: Test B pre/postemergence pigweed; assay type: in vivo, Amaranthus retroflexus
How it was run: as §1

[10] = tested on: corn; experiment: Test B pre/postemergence corn; assay type: in vivo, Zea mays
How it was run: as §1

[11] = tested on: surinam grass; experiment: Test B pre/postemergence surinam grass; assay type: in vivo, Brachiaria decumbens
How it was run: as §1

[12] = tested on: cocklebur; experiment: Test B pre/postemergence cocklebur; assay type: in vivo, Xanthium strumarium
How it was run: as §1

[13] = tested on: wheat; experiment: Test B pre/postemergence wheat; assay type: in vivo, Triticum aestivum
How it was run: as §1

[14] = tested on: rape; experiment: Test B pre/postemergence rape; assay type: in vivo, Brassica napus
How it was run: as §1

[15] = tested on: purple nutsedge; experiment: Test B pre/postemergence purple nutsedge; assay type: in vivo, Cyperus rotundus
How it was run: as §1

[16] = Postemergence, Rate 62 g/ha, scale 0 to 10, 0 is no effect, 10 is complete control
[17] = Preemergence, Rate 62 g/ha, scale 0 to 10 (0 no effect, 10 complete control)
[18] = Preemergence, Rate 125 g/ha, scale 0 to 10 (0 no effect, 10 complete control)
[19] = Preemergence, Rate 250 g/ha, scale of 0 to 10 where 0 is no effect and 10 is complete control
[20] = Preemergence, Rate 500 g/ha, scale 0 (no effect) to 10 (complete control)
[21] = Rate 125 g/ha, Postemergence, scale 0 to 10, 0 no effect, 10 complete control
[22] = Rate 500 g/ha, Postemergence, scale 0 to 10, 0 no effect, 10 complete control
[23] = Postemergence, Rate 250 g/ha, scale 0 to 10, 0 no effect, 10 complete control

In the case of `COc1cccc(C)c1-n1c(=O)on(C(=O)N(c2ccc(F)cc2F)C(C)C)c1=O` [Compound 74], the “Giant foxtail plant response rating” value [1, 16] is reported as 0, the “Giant foxtail plant response rating” value [1, 17] is reported as 3 and the “Plant response rating, Giant foxtail” value [1, 18] is reported as 7. For the same compound, the “Plant response rating, Giant foxtail” value [1, 19] was 8, the “Giant foxtail plant response rating” value [1, 20] was 10 and the “Giant foxtail plant response rating” value [1, 21] was 0. The “Giant foxtail plant response rating” value [1, 22] was 2, the “Crabgrass plant response rating” value [2, 16] was 0 and the “Crabgrass plant response rating” value [2, 23] was 4. For the same compound, the “Crabgrass plant response rating” value [2, 17] was 2, the “Plant response rating, Crabgrass” value [2, 18] was 2 and the “Plant response rating, Crabgrass” value [2, 19] was 5. For the same compound, the “Crabgrass plant response rating” value [2, 20] was 8, the “Crabgrass plant response rating” value [2, 21] was 2 and the “Crabgrass plant response rating” value [2, 22] was 7. The “Blackgrass plant response rating” value [3, 16] was 0, the “Blackgrass plant response rating” value [3, 23] was 0 and the “Blackgrass plant response rating” value [3, 17] was 0. For the same compound, the “Plant response rating, Blackgrass” value [3, 18] was 0, the “Plant response rating, Blackgrass” value [3, 19] was 0 and the “Blackgrass plant response rating” value [3, 20] was 0. The “Blackgrass plant response rating” value [3, 21] was 0, the “Blackgrass plant response rating” value [3, 22] was 3 and the “Soybean plant response rating” value [4, 16] was 0. For the same compound, the “Soybean plant response rating” value [4, 23] was 1, the “Soybean plant response rating” value [4, 17] was 0 and the “Plant response rating, Soybean” value [4, 18] was 0. The “Plant response rating, Soybean” value [4, 19] was 0, the “Soybean plant response rating” value [4, 20] was 0 and the “Soybean plant response rating” value [4, 22] was 1. The “Velvetleaf plant response rating” value [5, 16] was 2, the “Velvetleaf plant response rating” value [5, 23] was 4 and the “Velvetleaf plant response rating” value [5, 17] was 0. For the same compound, the “Plant response rating, Velvetleaf” value [5, 18] was 0, the “Plant response rating, Velvetleaf” value [5, 19] was 0 and the “Velvetleaf plant response rating” value [5, 20] was 0. The “Velvetleaf plant response rating” value [5, 21] was 4, the “Velvetleaf plant response rating” value [5, 22] was 4 and the “Bedstraw plant response rating” value [6, 16] was 0. For the same compound, the “Bedstraw plant response rating” value [6, 23] was 5, the “Bedstraw plant response rating” value [6, 17] was 0 and the “Plant response rating, Bedstraw” value [6, 18] was 0. The “Plant response rating, Bedstraw” value [6, 19] was 0, the “Bedstraw plant response rating” value [6, 20] was 0 and the “Bedstraw plant response rating” value [6, 21] was 0. For the same compound, the “Bedstraw plant response rating” value [6, 22] was 8, the “Wild oats plant response rating” value [7, 16] was 0 and the “Wild oats plant response rating” value [7, 23] was 0. For the same compound, the “Wild oats plant response rating” value [7, 17] was 0, the “Plant response rating, Wild oats” value [7, 18] was 0 and the “Plant response rating, Wild oats” value [7, 19] was 0. For the same compound, the “Wild oats plant response rating” value [7, 20] was 0, the “Wild oats plant response rating” value [7, 21] was 0 and the “Wild oats plant response rating” value [7, 22] was 2. The “Morningglory plant response rating” value [8, 16] was 2, the “Morningglory plant response rating” value [8, 23] was 3 and the “Morningglory plant response rating” value [8, 17] was 0. The “Plant response rating, Morningglory” value [8, 18] was 0, the “Plant response rating, Morningglory” value [8, 19] was 0 and the “Morningglory plant response rating” value [8, 20] was 0. The “Morningglory plant response rating” value [8, 21] was 2, the “Morningglory plant response rating” value [8, 22] was 4 and the “Redroot pigweed plant response rating” value [9, 16] was 0. The “Redroot pigweed plant response rating” value [9, 23] was 0, the “Redroot pigweed plant response rating” value [9, 17] was 0 and the “Plant response rating, Redroot pigweed” value [9, 18] was 0. For the same compound, the “Plant response rating, Redroot pigweed” value [9, 19] was 0, the “Redroot pigweed plant response rating” value [9, 20] was 3 and the “Redroot pigweed plant response rating” value [9, 21] was 0. The “Redroot pigweed plant response rating” value [9, 22] was 0, the “Corn plant response rating” value [10, 16] was 0 and the “Corn plant response rating” value [10, 23] was 0. For the same compound, the “Corn plant response rating” value [10, 17] was 0, the “Plant response rating, Corn” value [10, 18] was 0 and the “Plant response rating, Corn” value [10, 19] was 0. For the same compound, the “Corn plant response rating” value [10, 20] was 0, the “Corn plant response rating” value [10, 21] was 0 and the “Corn plant response rating” value [10, 22] was 0. For the same compound, the “B. signalgrass plant response rating” value [11, 16] was 0, the “B. signalgrass plant response rating” value [11, 23] was 0 and the “B. signalgrass plant response rating” value [11, 17] was 0. The “Plant response rating, B. signalgrass” value [11, 18] was 0, the “Plant response rating, B. signalgrass” value [11, 19] was 0 and the “B. signalgrass plant response rating” value [11, 20] was 0. The “B. signalgrass plant response rating” value [11, 21] was 0, the “B. signalgrass plant response rating” value ([11]; Rate 500 g/ha, Postemergence, scale of 0 to 10 where 0 is no effect and 10 is complete control) was 2 and the “Cocklebur plant response rating” value [12, 16] was 0. For the same compound, the “Cocklebur plant response rating” value [12, 23] was 0, the “Cocklebur plant response rating” value [12, 17] was 0 and the “Plant response rating, Cocklebur” value [12, 18] was 0. For the same compound, the “Plant response rating, Cocklebur” value [12, 19] was 0, the “Cocklebur plant response rating” value [12, 20] was 0 and the “Cocklebur plant response rating” value [12, 21] was 0. For the same compound, the “Cocklebur plant response rating” value [12, 22] was 4, the “Wheat plant response rating” value [13, 16] was 0 and the “Wheat plant response rating” value [13, 23] was 0. The “Wheat plant response rating” value [13, 17] was 0, the “Plant response rating, Wheat” value [13, 18] was 0 and the “Plant response rating, Wheat” value [13, 19] was 0. For the same compound, the “Wheat plant response rating” value [13, 20] was 0, the “Wheat plant response rating” value [13, 21] was 0 and the “Wheat plant response rating” value [13, 22] was 3. The “Rape plant response rating” value [14, 16] was 0, the “Rape plant response rating” value [14, 23] was 0 and the “Rape plant response rating” value [14, 17] was 0. The “Plant response rating, Rape” value [14, 18] was 0, the “Plant response rating, Rape” value [14, 19] was 0 and the “Rape plant response rating” value [14, 20] was 5. The “Rape plant response rating” value [14, 21] was 0, the “Rape plant response rating” value [14, 22] was 2 and the “Nutsedge plant response rating” value [15, 16] was 0. For the same compound, the “Nutsedge plant response rating” value [15, 23] was 0, the “Nutsedge plant response rating” value [15, 17] was 0 and the “Plant response rating, Nutsedge” value [15, 18] was 0. The “Plant response rating, Nutsedge” value [15, 19] was 0, the “Nutsedge plant response rating” value [15, 20] was 0 and the “Nutsedge plant response rating” value [15, 21] was 0. For the same compound, the “Nutsedge plant response rating” value [15, 22] was 0.

— patent US6737383B1, “Herbicidal oxadiazolidines” (priority 1999, dated 2004)
